{"source": "patent US20250367225A1", "about": "(priority 2022, published 2025)", "key": {"[1]": {"tested_on": "ic-SARS-COV-2-mNeon infection in Huh7 cells", "assay_type": "cell-based, human", "conditions": "for inhibition of ic-SARS-COV-2-mNeon infection by supernatant of stimulated human iNKT cells: 1 μg/mL lipid, iNKT + HeLa-hCD1d 24 h, supernatant on Huh7 cells"}, "human RSV A2 strain": {"tested_on": "human RSV A2 strain", "assay_type": "in vivo, BALB/c mice", "conditions": "2 μg IN 2 days prior, 600,000 pfu RSV A2"}, "[2]": {"tested_on": "influenza A virus (H1N1) PR/8/34 (PR8) strain", "assay": "Influenza A PR8 challenge of C57BL/6 mice", "assay_type": "in vivo"}, "SARS-COV-2 (USA/WA1)": {"tested_on": "SARS-COV-2 (USA/WA1)", "assay": "Direct antiviral effect against SARS-COV-2 in Vero E6 cells (CPE)", "assay_type": "cell-based", "conditions": "Vero E6, MOI 0.1, 70 h", "experimental": "After 30 min, SARS-COV-2 (USA/WA1) was added to each well to final MOI 0.1. Cells were incubated at 37 °C/5% CO2 for 70 h prior to scoring CPE. Percent inhibition was calculated from fold reduction in CPE over control wells receiving no drug. Remdesivir (RDV) was used as a positive control for the assay. Phosphatidylethanolamine (PE) and Biotin-phosphatidylethanolamine (B-PE) were used as a negative control. […] C57BL/6 mice (N=10) were given 2 μg of 7DW8-5 or saline by IN route 2 days before intranasal challenge with 5,000 pfu (lethal dose) of the PR8 strain. Kaplan-Meier Survival curve was plotted."}, "cytokines/chemokines": {"tested_on": "cytokines/chemokines", "assay": "Cytokine/chemokine 31-Plex profile after intranasal administration", "assay_type": "in vivo, BALB/c mice", "conditions": "2 μg IN; one day after; BAL, nasal turbinate and lung homogenates, sera"}, "IFNγ": {"tested_on": "IFNγ", "assay_type": "in vivo, BALB/c mice", "conditions": "2 μg IN; 24 h; nasal turbinate and lung homogenate supernatants, sera"}, "lung mononuclear cells": {"tested_on": "lung mononuclear cells", "assay": "Single-cell gene-expression analysis of lung mononuclear cells", "assay_type": "in vivo, BALB/c mice", "conditions": "2 μg IN; 24 h; lung CD45+ cells"}, "splenocytes [3]": {"tested_on": "splenocytes", "assay": "IFN-γ-secreting splenocytes in response to glycolipids in culture (mouse)", "assay_type": "cell-based", "description": "(§1) FIGS. 12A-B show relative number of IFN-γ-secreting splenocytes in hamster versus mouse in response to glycolipids in culture.\n(§2) The relative number of IFN-γ-secreting splenocytes in hamster versus mouse in response to glycolipids in culture are shown in FIGS. 12A-B. 7DW8-5 administration affects IFN-γ-secreting splenocyte numbers in hamsters as shown in FIG. 12A. Cytokine induction"}, "splenocytes [4]": {"tested_on": "splenocytes", "assay": "IFN-γ-secreting splenocytes in response to glycolipids in culture (hamster)", "assay_type": "cell-based", "description": "as §1, §2"}, "[5]": {"assay": "Toxicity noted in mice in the current study", "assay_type": "in vivo", "description": "(§3) Without being bound by theory, 7DW8-5 can be an agent for pre-exposure prophylaxis to prevent infections by SARS-COV-2, RSV, influenza virus, and possibly other clinically important respiratory viruses. It is a chemical compound that is thermostable and thus simple to ship and store, cheap to manufacture, and easy to administer intranasally. It is expected that 7DW8-5 is similarly effective in people. […] Second, iNKT cells constitute up to 1% of peripheral blood mononuclear cells in both humans and mice^38,39, although the variability is greater among humans^38."}, "[6]": {"assay": "Toxicity noted in hamsters in the current study", "assay_type": "in vivo", "description": "as §3"}, "Thermostability (stated)": {"assay": "Thermostability (stated)", "assay_type": "physicochemical", "conditions": "stated in discussion, no test described"}, "[7]": {"conditions": "up to 100 μg intramuscularly; cited from earlier work"}, "mouse iNKT cells": {"tested_on": "mouse iNKT cells", "conditions": "mouse iNKT cells in vitro; cited from earlier work"}, "human iNKT cells": {"tested_on": "human iNKT cells", "conditions": "human iNKT cells in vitro; cited from earlier work"}, "[8]": {"conditions": "6 IV doses of 0.12 mg/kg, cancer patients; cited from earlier work"}}, "note": "“Also recorded” adds a separate entry of the source. Where two headings read alike, the source gives them in different places.", "data": [{"smiles": "CCCCCCCC/C=C\\CCCCCCCC(=O)OC[C@H](COP(=O)(O)OCCNC(=O)CCCCCN)OC(=O)CCCCCCC/C=C\\CCCCCCCC", "note": "[1,2-dioleoyl-sn-glycero-3-phosphoethanolamine-N-(hexanoylamine), reference compound]", "values": [{"measurement": "inhibition of ic-SARS-COV-2-mNeon infection by supernatant of stimulated human iNKT cells", "setting": "[1]", "result": "not"}]}, {"smiles": "CCCCCCCCCCCCCC[C@@H](O)[C@@H](O)[C@H](CO[C@H]1O[C@H](CO)[C@H](O)[C@H](O)[C@H]1O)NC(=O)CCCCCCCCCCc1ccc(F)cc1", "note": "[7DW8-5]", "values": [{"measurement": "body weight", "setting": "human RSV A2 strain", "result": "significantly prevented weight loss"}, {"measurement": "virus replication in lung tissues", "setting": "human RSV A2 strain; day 4, TCID50 in Hep2 cells", "result": "inhibited virus replication; also recorded: decreased"}, {"measurement": "body weight", "setting": "[2]; 2 μg IN 2 days prior, 5,000 pfu PR8, day 3", "result": "significantly maintained body weight"}, {"measurement": "body weight loss", "setting": "[2]; 2 μg IN one day before 200 pfu PR8, day 3 (FIG. 7)", "result": "lack of body weight loss"}, {"measurement": "body weight loss", "setting": "[2]; 2 μg IN, 5000 pfu PR8, monitored every day after challenge (FIG. 8C)", "result": "ameliorated"}, {"measurement": "survival", "setting": "[2]; 2 μg IN, lethal dose 5×10^3 PFU PR8, all control mice died by Day 10", "result": "8 of 10 and higher probability of survival"}, {"measurement": "direct antiviral activity against SARS-COV-2 in vitro", "setting": "SARS-COV-2 (USA/WA1)", "result": "no direct antiviral activity; also recorded: lack of a direct antiviral effect"}, {"measurement": "cytokines/chemokines incl. IFN-γ, IL-5, IL-6, IP-10, TNF-α, MCP1, MIG", "setting": "cytokines/chemokines", "result": "Marked upregulation"}, {"measurement": "IFN-γ induction by ELISA", "setting": "IFNγ", "result": "No evidence of IFN-γ induction; also recorded: minimal level"}, {"measurement": "IFN-γ production in proliferative NK cells, T cells, iNKT cells (single-cell analysis)", "setting": "lung mononuclear cells", "result": "apparent shift toward IFN-γ production"}, {"measurement": "IFN-γ-secreting splenocytes", "setting": "splenocytes [3]", "result": "increases"}, {"measurement": "IFN-γ-secreting splenocyte numbers", "setting": "splenocytes [4]", "result": "affects"}, {"measurement": "inhibition of ic-SARS-COV-2-mNeon infection by supernatant of stimulated human iNKT cells", "setting": "[1]", "result": "display anti-viral activity; also recorded: significantly inhibit"}, {"measurement": "inhibition by supernatant with neutralizing anti-human IFN-γ Ab added", "setting": "[1]; anti-human IFN-γ antibody 1 μg/mL", "result": "inhibited; also recorded: completely abolished"}, {"measurement": "toxicity", "setting": "[5]", "result": "lack of toxicity"}, {"measurement": "toxicity", "setting": "[6]", "result": "lack of toxicity"}, {"measurement": "thermostability", "setting": "Thermostability (stated)", "result": "thermostable"}, {"measurement": "adverse reactions", "setting": "[7]", "result": "did not lead to any adverse reactions"}, {"measurement": "immunostimulatory activity compared with α-GalCer", "setting": "mouse iNKT cells", "result": "even more potent immunostimulatory activity"}, {"measurement": "immunostimulatory activity", "setting": "human iNKT cells", "result": "potent stimulatory effect"}]}, {"smiles": "CCCCCCCCCCCCCCCCCCCCCCCCCC(=O)NC(CO[C@H]1O[C@H](CO)[C@H](O)[C@H](O)[C@H]1O)[C@H](O)[C@H](O)CCCCCCCCCCCCCC", "note": "(stereo partly drawn) [α-GalCer, N-[(3S,4R)-3,4-dihydroxy-1-[(2S,3R,4S,5R,6R)-3,4,5-trihydroxy-6-(hydroxymethyl)oxan-2-yl]oxyoctadecan-2-yl]hexacosanamide]", "values": [{"measurement": "toxicity", "setting": "[8]", "result": "without evidence of toxicity"}]}]}
